Laboratory results from patent US20250171495A1, “MUTLI-TARGETED SERINE PROTEASE INHIBITORS FOR TREATMENT OF CANCER AND VIRAL INFECTION” (Washington University, priority 2023, published 2025).
Read-outs that look alike come from different tables or passages of the source.

Key:
Assay type in all cases: biochemical
[1] = biological target: T1, matriptase (Homo sapiens, UniProt Q9Y5Y6); assay: Fluorogenic kinetic enzyme inhibitor assay, matriptase
T1 construct: purchased R&D Systems 3946-SEB-010
T1 sequence (Q9Y5Y6 615-855 limits assumed): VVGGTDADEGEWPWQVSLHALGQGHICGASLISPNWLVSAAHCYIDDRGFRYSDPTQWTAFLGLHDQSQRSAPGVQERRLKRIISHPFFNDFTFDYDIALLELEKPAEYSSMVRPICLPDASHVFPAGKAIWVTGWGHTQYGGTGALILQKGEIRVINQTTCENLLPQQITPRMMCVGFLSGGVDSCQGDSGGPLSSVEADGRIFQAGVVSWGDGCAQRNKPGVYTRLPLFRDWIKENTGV

[2] = biological target: T2, hepsin (Homo sapiens, UniProt P05981); assay: Fluorogenic kinetic enzyme inhibitor assay, hepsin
T2 construct: purchased R&D Systems 4776-SE-010
T2 sequence (P05981 163-417 limits assumed): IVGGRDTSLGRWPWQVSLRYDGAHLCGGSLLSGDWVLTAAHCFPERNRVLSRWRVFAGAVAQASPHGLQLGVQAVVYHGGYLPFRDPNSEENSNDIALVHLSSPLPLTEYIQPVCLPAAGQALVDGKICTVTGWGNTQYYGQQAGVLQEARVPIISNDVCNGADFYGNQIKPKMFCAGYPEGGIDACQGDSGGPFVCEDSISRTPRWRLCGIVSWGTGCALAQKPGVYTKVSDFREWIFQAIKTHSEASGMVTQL
T2 sequence (P05981 1-162 partner limits assumed): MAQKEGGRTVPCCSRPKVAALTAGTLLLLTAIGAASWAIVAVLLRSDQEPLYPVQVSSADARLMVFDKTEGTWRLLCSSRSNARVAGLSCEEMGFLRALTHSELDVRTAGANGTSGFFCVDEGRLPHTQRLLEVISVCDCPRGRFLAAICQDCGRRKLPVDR

[3] = biological target: TMPRSS2 (Homo sapiens, UniProt O15393); assay: Fluorogenic kinetic enzyme inhibitor assay, TMPRSS2; set-up: purchased Cusabio Technology CSB-YP023924HU
Sequence of TMPRSS2 (O15393 106-492 limits assumed): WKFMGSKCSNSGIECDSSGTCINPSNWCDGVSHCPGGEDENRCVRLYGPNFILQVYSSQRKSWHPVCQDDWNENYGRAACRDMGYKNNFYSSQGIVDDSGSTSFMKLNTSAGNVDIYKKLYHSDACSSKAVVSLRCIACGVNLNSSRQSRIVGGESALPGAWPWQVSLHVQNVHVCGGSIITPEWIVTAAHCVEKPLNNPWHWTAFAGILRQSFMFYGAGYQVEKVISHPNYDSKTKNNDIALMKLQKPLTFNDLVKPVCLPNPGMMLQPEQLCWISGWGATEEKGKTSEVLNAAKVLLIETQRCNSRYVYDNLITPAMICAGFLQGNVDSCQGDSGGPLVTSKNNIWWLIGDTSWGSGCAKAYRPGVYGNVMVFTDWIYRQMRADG

Row | Compound | IC50 ([1]; read-out: Matriptase IC50) | IC50 ([2]; read-out: Hepsin IC50) | IC50 ([3]; read-out: TMPRSS2 IC50) | IC50 [1] | IC50 [2] | IC50 [3]
1 | CC(=O)N[C@@H](CO)C(=O)NCc1ccc(CC(=O)N[C@@H](CC(C)C)C(=O)N[C@@H](CCCNC(=N)N)C(=O)c2nc3ccccc3s2)cc1 [AJS3200, N-[(S)-1-[(1,3-benzothiazol-2-yl)carbonyl]-4-guanidinobutyl](S)-2-{[(p-{[(S)-2-acetylamino-3-hydroxypropionylamino]methyl}phenyl)methyl]carbonylamino}-4-methylvaleramide] | 9.52 nM | 2.81 nM | 0.376 nM |  |  | 
2 | CC(=O)N[C@@H](CO)C(=O)NCc1ccc(C(=O)N[C@@H](CC(C)C)C(=O)N[C@@H](CCCNC(=N)N)C(=O)c2nc3ccccc3s2)cc1 [AJS4016] | 10.3 nM | 21.8 nM | 0.067 nM |  |  | 
3 | CC(=O)N1C(C(=O)N[C@@H](CCC(=O)OC2CCCCC2)C(=O)N[C@@H](Cc2ccc(F)cc2)C(=O)N[C@@H](CCCNC(=N)N)C(=O)c2nc3ccccc3s2)CC2CCCCC21 (stereo partly drawn) [MF1064, cyclohexyl (S)-4-[(2R)-1-acetyloctahydro-2H-indol-2-ylcarbonylamino]-4-[N-(S)-2-(p-fluorophenyl)-1-[N-(S)-1-[(1,3-benzothiazol-2-yl)carbonyl]-4-guanidinobutylcarbamoyl]ethylcarbamoyl]butyrate] |  | 0.831 nM | 0.004 nM | 1.23 nM |  | 
4 | CC(=O)N1c2ccccc2C[C@H]1C(=O)N[C@@H](CCC(=O)OC1CCCCC1)C(=O)N[C@@H](Cc1ccc(F)cc1)C(=O)N[C@@H](CCCNC(=N)N)C(=O)c1nc2ccccc2s1 [MF1065, cyclohexyl (S)-4-[(S)-1-acetyl-2-indolinylcarbonylamino]-4-[N-(S)-2-(p-fluorophenyl)-1-[N-(S)-1-[(1,3-benzothiazol-2-yl)carbonyl]-4-guanidinobutylcarbamoyl]ethylcarbamoyl]butyrate] |  |  |  | 3.49 nM | 1.76 nM | 0.062 nM
5 | C=CCOC(=O)CC[C@H](NC(=O)[C@@H]1CC2CCCCC2N1C(C)=O)C(=O)N[C@@H](Cc1ccc(F)cc1)C(=O)N[C@@H](CCCNC(=N)N)C(=O)c1nc2ccccc2s1 (stereo partly drawn) [MF1068, allyl (S)-4-[(2S)-1-acetyloctahydro-2H-indol-2-ylcarbonylamino]-4-[N-(S)-2-(p-fluorophenyl)-1-[N-(S)-1-[(1,3-benzothiazol-2-yl)carbonyl]-4-guanidinobutylcarbamoyl]ethylcarbamoyl]butyrate] |  | 0.308 nM | 0.083 nM | 0.375 nM |  | 
6 | N=C(N)NCCC[C@H](NC(=O)[C@H](Cc1ccccc1)NC(=O)[C@H](CCC(N)=O)NS(=O)(=O)c1ccccc1)C(=O)c1nc2ccccc2s1 [MF1101, N-[(S)-1-[N-(S)-1-[(1,3-benzothiazol-2-yl)carbonyl]-4-guanidinobutylcarbamoyl]-2-phenylethyl](S)-2-(phenylsulfonylamino) glutaramide] | 2.89 nM | 0.8 nM | 1.02 nM |  |  | 
7 | N=C(N)NCCC[C@H](NC(=O)[C@H](Cc1ccccc1)NC(=O)[C@H](CCC(N)=O)NS(=O)(=O)C1CC1)C(=O)c1nc2ccccc2s1 [MF1104, N-[(S)-1-[N-(S)-1-[(1,3-benzothiazol-2-yl)carbonyl]-4-guanidinobutylcarbamoyl]-2-phenylethyl](S)-2-(cyclopropylsulfonylamino) glutaramide] | 5.59 nM | 1.07 nM | 0.273 nM |  |  | 
8 | N=C(N)NCCC[C@H](NC(=O)[C@H](Cc1ccccc1)NC(=O)[C@H](CCC(N)=O)NS(=O)(=O)Cc1ccccc1)C(=O)c1nc2ccccc2s1 [MF1105, N-[(S)-1-[N-(S)-1-[(1,3-benzothiazol-2-yl)carbonyl]-4-guanidinobutylcarbamoyl]-2-phenylethyl](S)-2-(benzylsulfonylamino) glutaramide] | 1.48 nM | 0.31 nM | 0.07 nM |  |  | 
9 | CC(=O)N[C@@H](CCC(C)C)C(=O)N[C@@H](CCC(=O)OC1CCCCC1)C(=O)N[C@@H](Cc1ccc(F)cc1)C(=O)N[C@@H](CCCNC(=N)N)C(=O)c1nc2ccccc2s1 [MF1125, cyclohexyl (S)-4-[(S)-1-acetylamino-4-methylpentylcarbonylamino]-4-[N-(S)-2-(p-fluorophenyl)-1-[N-(S)-1-[(1,3-benzothiazol-2-yl)carbonyl]-4-guanidinobutylcarbamoyl]ethylcarbamoyl]butyrate] |  |  |  | 3.05 nM | 3.5 nM | 0.085 nM
10 | N=C(N)NCCC[C@H](NC(=O)[C@H](Cc1ccc(F)cc1)NC(=O)OCC1c2ccccc2-c2ccccc21)C(=O)c1nc2ccccc2s1 [MF1131, (S)-2-(p-fluorophenyl)-1-[N-(S)-1-[(1,3-benzothiazol-2-yl)carbonyl]-4-guanidinobutylcarbamoyl]ethyl (9H-fluoren-9-yl)methanecarbamate] | 967 nM | 1130 nM | 14 nM |  |  | 
11 | N=C(N)NCCC[C@H](NC(=O)[C@H](Cc1ccc(F)c(F)c1)NC(=O)OCC1c2ccccc2-c2ccccc21)C(=O)c1nc2ccccc2s1 [MF1132, (S)-2-(3,4-difluorophenyl)-1-[N-(S)-1-[(1,3-benzothiazol-2-yl)carbonyl]-4-guanidinobutylcarbamoyl]ethyl (9H-fluoren-9-yl)methanecarbamate] | 144 nM | 231 nM | 28.6 nM |  |  | 
12 | N=C(N)NCCC[C@H](NC(=O)[C@H](CCCCNC(=O)OCc1ccccc1Cl)NC(=O)OCC1c2ccccc2-c2ccccc21)C(=O)c1nc2ccccc2s1 [MF1151, (S)-5-{[(o-chlorophenyl)methyl] (oxycarbonylamino)}-1-[N-(S)-1-[(1,3-benzothiazol-2-yl)carbonyl]-4-guanidinobutylcarbamoyl] pentyl (9H-fluoren-9-yl)methanecarbamate] | 11.1 nM |  | 283 nM |  |  | 
13 | N=C(N)NCCC[C@H](NC(=O)[C@@H](NC(=O)OCc1ccccc1)C1Cc2ccccc2C1)C(=O)c1nc2ccccc2s1 [MF2008, (S)-(2-indanyl)[N-(S)-1-[(1,3-benzothiazol-2-yl)carbonyl]-4-guanidinobutylcarbamoyl] methyl-phenylmethanecarbamate] | 75.3 nM |  | 0.303 nM |  |  | 
14 | CC(C)(C)C[C@H](NC(=O)OCc1ccccc1)C(=O)N[C@@H](CCCNC(=N)N)C(=O)c1nc2ccccc2s1 [MF2009, (S)-3,3-dimethyl-1-[N-(S)-1-[(1,3-benzothiazol-2-yl)carbonyl]-4-guanidinobutylcarbamoyl] butyl-phenylmethanecarbamate] | > 20000 nM |  | 614 nM |  |  | 
15 | N=C(N)NCCC[C@H](NC(=O)[C@H](Cc1ccc2ccccc2c1)NC(=O)OCC1c2ccccc2-c2ccccc21)C(=O)c1nc2ccccc2s1 [MF2012, (S)-2-(2-naphthyl)-1-[N-(S)-1-[(1,3-benzothiazol-2-yl)carbonyl]-4-guanidinobutylcarbamoyl] ethyl (9H-fluoren-9-yl)methanecarbamate] | > 20000 nM |  | 187 nM |  |  | 
16 | CC(=O)N[C@H]1Cc2ccc(cc2)Oc2ccc(cc2)C[C@@H](C(=O)N[C@@H](CCCNC(=N)N)C(=O)c2nc3ccccc3s2)NC(=O)[C@H](CC(C)C)NC1=O [VD5076B, N-[(S)-1-[(1,3-benzothiazol-2-yl)carbonyl]-4-guanidinobutyl]-(8S,11S,14S)-14-acetylamino-11-isobutyl-10,13-dioxo-2-oxa-9,12-diazatricyclo[14.2.2.2^3,^6]docosa-1(18),3,5,16,19,21-hexaene-8-carboxamide] |  |  | 1.25 nM |  |  | 
